Measurements taken from PubChem BioAssay (NCI).
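Where inhibition never reached the appropriate level, the endpoint shown equals the highest concentration tested. Otherwise, values were interpolated linearly from a five-concentration, 48-hour dose response in 96-well plates. Abbreviation: GI50, concentration required for 50% inhibition of growth. The concentration for full growth arrest is given as TGI.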

Experiments:
Assay in all cases: growth of human tumour cells (NCI), 48 h
PC-3 prostate = test system: PC-3 prostate
OVCAR-4 ovarian = test system: OVCAR-4 ovarian
M14 melanoma = test system: M14 melanoma
A498 renal = test system: A498 renal
SK-MEL-5 melanoma = test system: SK-MEL-5 melanoma
OVCAR-5 ovarian = test system: OVCAR-5 ovarian
K-562 leukemia = test system: K-562 leukemia

Row | SMILES | TGI (PC-3 prostate) [µM] | TGI (OVCAR-4 ovarian) [µM] | TGI (M14 melanoma) [µM] | TGI (A498 renal) [µM] | TGI (SK-MEL-5 melanoma) [µM] | TGI (OVCAR-5 ovarian) [µM] | TGI (K-562 leukemia) [µM] | GI50 (K-562 leukemia) [nM] | GI50 (PC-3 prostate) [nM] | GI50 (OVCAR-4 ovarian) [nM] | GI50 (A498 renal) [nM] | GI50 (OVCAR-5 ovarian) [nM] | GI50 (SK-MEL-5 melanoma) [nM]
1 | Cc1ccc(S(=O)(=O)N2CCc3cc(O)c([N+](=O)[O-])cc32)cc1 | > 100 | > 100 | > 100 | > 100 | > 100 |  |  |  |  |  |  |  | 
2 | Oc1ccc(C[C@@H]2CN[C@H](Cc3ccc(O)c(Br)c3)CN2)cc1 | > 100 | > 100 | > 100 | > 100 |  | > 100 |  |  |  |  |  |  | 
3 | CC1OC2OC3C(OCC(O)C3O)OC(=O)[C@]34CCC(C)(C)CC3C3=CCC5[C@@]6(C)C[C@H](O)[C@H](OC7OC(CO)C(O)C(O)C7OC7OC(COC(=O)CC(C)(O)CC(=O)OC1C(OC1OC(CO)C(O)C(O)C1O)C2O)C(O)C(O)C7O)[C@@](C)(CO)C6CC[C@@]5(C)[C@]3(C)CC4 (stereo partly specified) | 6.85 | 16.1 | 8.44 |  | 0.272 | 5.7 |  |  |  |  |  |  | 
4 | CCOP(=O)(COCCn1nc(Br)c(=O)[nH]c1=O)OCC | > 100 |  | > 100 | > 100 | > 100 | > 100 | > 100 |  |  |  |  |  | 
5 | CC12CCC(=O)[C@@]1(C)CCCC2=O (stereo partly specified) | > 100 | > 100 | > 100 |  |  | > 100 | > 100 |  |  |  |  |  | 
6 | COc1ccc(C(=C2C(=O)OC(=O)C2=C(C)C)c2ccc(OC)cc2)cc1 | > 100 | 92.5 | > 100 | > 100 | > 100 | > 100 |  |  |  |  |  |  | 
7 | CC1=CC(O)CC(C)(C)C1/C=C/C(C)=C/C=C/C(C)=C/C=C/C=C(C)/C=C/C=C(C)/C=C/C1=C(C)CC(O)CC1(C)C (stereo unspecified) | 62.6 | 66.9 | 29.8 |  | 32.7 | 78.4 | > 100 |  |  |  |  |  | 
8 | CC(=O)Oc1ccc2c(c1)O/C(=C\c1ccc(O)cc1)C2=O | > 100 | > 100 | > 100 |  | > 100 |  | > 100 |  |  |  |  |  | 
9 | O=C(O)Cn1c[n+](NC(=O)Cc2ccccc2)cn1 |  | > 10 | > 10 | > 10 | > 10 | > 10 | > 10 |  |  |  |  |  | 
10 | COc1ccc(CCn2ccc(=O)c(O)c2C)cc1OC | > 100 |  | 36.7 |  | 41.8 | > 100 | > 100 |  |  |  |  |  | 
11 | COC(=O)Cc1c2n(c3ccccc13)C(=O)N1c3ccccc3C(CC(=O)OC)C21 (stereo unspecified) | > 100 | 57.1 |  | > 100 | > 100 | > 100 | > 100 |  |  |  |  |  | 
12 | CC(=O)OC1COC(N2c3ccccc3[C@@H]3CCc4c([nH]c5ccccc45)[C@@H]32)C(OC(C)=O)C1OC(C)=O (mixture of isomers) | > 100 | > 100 | > 100 | 62 | > 100 | > 100 |  |  |  |  |  |  | 
13 | O=C1c2cc3c(cc2-c2c1c1cc(F)c(F)cc1c(=O)n2C[C@H](O)CO)OCO3 | > 100 | > 100 |  | 0.254 | 0.116 | 4.55 | > 100 | 69 | 127 | 423 | 83.4 | 207 | 30.7
14 | CC1=[N+]([O-])C2(CCCC2)N(O)C1(C)C | > 100 | > 100 | > 100 |  | > 100 | > 100 | > 100 |  |  |  |  |  | 
15 | Fc1ccc(OCc2ccc3nc(-c4ccccc4)c(Cl)nc3c2)cc1 | > 100 | > 100 | > 100 | 50.1 | > 100 | > 100 |  |  |  |  |  |  | 
16 | CN1C2CCC1C(CO)C(=O)C2 (stereo unspecified) | > 100 | > 100 |  | > 100 | > 100 |  | 72 |  |  |  |  |  | 
17 | Cc1cccc2c(N)c3cccc(C(=O)NCC[N+](C)(C)[O-])c3nc12 | 60.4 | 28.2 | 55 |  | > 100 | 27.6 | > 100 |  |  |  |  |  | 
18 | Cn1c(=O)c2[nH]c(Nc3cccc(Cl)c3)nc2n(C)c1=O | > 10 | > 10 | > 10 |  | > 10 |  | > 10 |  |  |  |  |  | 
19 | CCC1(c2ccc(OC)c(OC)c2)CCN2C(=O)C(O)CC21 (stereo unspecified) | > 100 | > 100 | > 100 |  | > 100 | > 100 | > 100 |  |  |  |  |  | 
20 | CCOC(=O)C(NC(=O)CC)(Nc1ccccc1F)C(F)(F)F (stereo unspecified) | > 100 | > 100 | > 100 |  | > 100 | > 100 | > 100 |  |  |  |  |  | 
21 | CN(C)C(=O)/N=C1\SC(=Nc2ccccc2)C(=Nc2ccccc2)N1c1ccc([N+](=O)[O-])cc1 | > 100 |  | > 100 | > 100 | > 100 | > 100 | > 100 |  |  |  |  |  | 
22 | Clc1sc(Cl)c2c1[C@H](Br)C[C@@H]2Cl | > 100 | > 100 | 54.5 |  | > 100 | > 100 | > 100 |  |  |  |  |  | 
23 | CC(=O)N=S(NC(=O)c1ccc(C)cc1)C(Cl)(Cl)Cl (stereo unspecified) | > 100 | 77.7 | 31.8 |  | 77.9 | > 100 | > 100 |  |  |  |  |  | 
